From patent publication US8258188B2 (priority 2004, dated 2012)
Several values for one entry are separate records, joined by “and”; a condition that tells them apart may be missing. Identical values can stand only once. Like-named read-outs stand apart in the source and are kept apart here. Marks after values point to notes of the source that are not given here.

What was measured:
[1] = system: C57BL6 mice challenged with 2.5% DSS; experiment: DSS colitis model of experimental IBD (Experiment 1); assay type: in vivo
[2] = 0.6 g punicic acid/100 g food, 38 days, oral
Excerpt: All specimens were generally labeled with the following information: 1) mouse number; 2) date collected; 3) experiment number; 4) type of solvent; and 5) tissue type.

[3] = system: colonic lymph nodes; details: 0.6 g punicic acid/100 g food, least square mean ± SEM
Method: (§1) A total of twenty-two C57BL6 mice were used in Experiment 2. All mice were born on Nov. 23, 2003, weaned on Dec. 16, 2003 and fed the experimental diets from Dec. 19, 2003 to Jan. 15, 2004. […] Mice were weighed on a weekly basis. Mice were euthanized. Blood was collected from each mouse for generating serum, which was stored at −20° C. Thymus, spleen and colonic lymph nodes were harvested, weighed and collected in cRPMI in sterile conditions. Colon and liver specimens were collected in RNA later (Ambion Inc., Austin, Tex.) and frozen at −80° C. for gene expression analysis. Brain, kidney, liver, colon and ileum were also collected in a 10% buffered neutral formalin solution and processed as described in experiment 1 for histological evaluation. The remaining portion of the carcass was stored in 50-mL, conical tubes and frozen at −20° C. for body composition and fatty acid analysis. All specimens were generally labeled with the following information: 1) mouse number; 2) date collected; 3) experiment number; 4) type of solvent; and 5) tissue type. Tissue slides were examined in an Olympus microscope (Olympus America Inc., Dulles, Va.). Images were captured using the FlashBus FBG software (Integral Technologies, Indianapolis, Ind.) and processed in Adobe Photoshop Elements 2.0 (Adobe Systems Inc., San Jose, Calif.).
(§2) Spleens, thymuses and colonic lymph nodes were collected in complete RPMI on ice. Single-cell suspensions were obtained from each tissue by gently disrupting the tissue between two frosted ends of two glass slides on a petri dish containing 3 mL of cRPMI. The single-cell suspension was transferred from the petri dish to a 15-mL polypropylene tube (Fisher, Atlanta, Ga.) and washed by centrifuging in an Eppendorf 5810 R centrifuge (Westbury, N.Y.) at 200×g for 5 minutes at 4° C. The supernatant was discarded by decantation of the tube. The cell pellet was broken by gently tapping the tube against a solid surface. The total numbers of spleenocytes, thymocytes and colonic lymph node lymphocytes in each mouse were enumerated in a Z1 Coulter Single Particle Counter (Miami, Fla.). Briefly, 10-mL of isoton II diluent solution (Beckman Coulter, Miami, Fla.) were added into a counting vial, followed by 40 μL of the cell suspension, 4 drops of Zapaglobin (Beckman Coulter, Miami Fla.), and 10 additional mL of the isoton solution. The volume in which the cells were resuspended was assessed using a 5-mL, sterile pipette. The concentration of cells/mL and the total volume in each tube were used to determine the total amount of cells in each tissue and mouse.
(§3) A description of the uses of flow cytometry was provided in Experiment 1. Splenocyte suspensions were freed of erythrocytes by osmotic lysis (adding 4.5 mL of sterile deionized water for 1 to 2 seconds and then adding 0.5 mL of 10× PBS to make 1× PBS solution). Cells were washed again by centrifuging in an Eppendorf 5810 R centrifuge (Westbury, N.Y.) at 200×g for 5 minutes at 4° C. The supernatant was discarded by decantation of the tube. The cell pellet was broken by gently tapping the tube against a solid surface. FACS buffer (1 mL) was added in each tube. Splenocytes, thymocytes and colonic lymph node-derived mononuclear cells were enumerated in a Z1 Coulter Single Particle Counter (Miami, Fla.), adjusted to 2×10^6 cells/mL. Splenocytes, thymocytes, and colonic lymph nodes were analyzed for expression of CD4, CD8, CD3, TCRalphabeta, TCRgammadelta and CD19 molecules by flow cytometry as previously described (Bassaganya-Riera et al. 2001; Bassaganya-Riera et al. 2002; Bassaganya-Riera et al. 2003). Briefly, a volume of 100 μl of the splenocyte, thymocyte, and colonic lymph node lymphocyte suspension was added in to a round-bottomed microtiter plate (Becton Dickinson, Lincoln Park, N.J.) and stained with 50 μl of the primary antibody solutions in FACS buffer.

[4] = system: spleen; details: 0.6 g punicic acid/100 g food; least square mean ± SEM
Method: as §1, §2, §3

[5] = system: thymus; details: 0.6 g punicic acid/100 g food; least square mean ± SEM
Method: as §1, §2, §3

[6] = system: lymph node-derived lymphocytes
Method: (§4) cRPMI medium was prepared as shown above. Wells of 96-well flat-bottomed microtiter plates (Becton Dickinson, Lincoln Park, N.J.) were seeded with 2×10^5 mononuclear cells in a total volume of 200 μl per well. Wells contained either concanavalin A (5 μg/ml, Con-A; Sigma), or medium alone (non-stimulated). Plates were incubated for 5 days at 37° C. in 5% CO2 humidified atmosphere. After 5 days, 0.5 μCi of methyl-[^3H] thymidine (specific radioactivity 6.7 Ci mmol^−1; Amersham Life Science, Arlington Heights, Ill.) in 10 μl of medium was added to each well and plates incubated for an additional 20 h. Well contents were harvested onto fiber filters with a PHD cell harvester (Skatron Instruments Inc., Sterling, Va.) and incorporated radioactivity measured by liquid scintillation counting (Beckman Instruments, Schaumburg, Ill.). Samples were run in triplicate and stimulation indices (SI) calculated by dividing counts min^−1 of stimulated wells by counts min^−1 from non-stimulated wells.
(§5) Statistical analysis was performed by analysis of variance (ANOVA). […] Differences with a probability value (P<0.05) were considered statistically significant.

[7] = system: splenocytes
Method: as §4, §5

[8] = system: C57BL6 mice fed regular or high fat diets; details: day 78, least squares mean
Excerpt: (§6) In Western countries, Metabolic Syndrome or Syndrome X (i.e., diabetes, obesity, cardiovascular disease, hypertension and hyperlipidemia) is on a steady rise. […] A total of fifty C57BL6 mice were used in experiment 4. […] These diets are defined as regular diets and were formulated to be isocaloric between treatment groups. […] The high fat diets were also formulated to be isocaloric between treatment groups. The remaining mice within each group (n=5) were fed the regular diets. On day 78 of the experiment, mice were killed, blood was collected and immediately analyzed for fasting glucose concentrations by using the Accu-Check Instant Plus System (Roche Diagnostics Corporation, Indianapolis, Ind.) or stored for subsequent analysis of insulin concentrations in plasma. Abdominal white adipose tissue and interscapular brown adipose tissue were collected, weighed and stored at −80° C. for RNA analyses. Liver, lungs, kidneys, pancreas and heart were examined for macroscopic abnormalities (gross lesions), fixed in phosphate-buffered formalin (10%) and processed as described in experiment 1 for histological evaluation. All specimens were generally labeled with the following information: 1) mouse number; 2) date collected; 3) experiment number; 4) type of solvent; and 5) tissue type.
Serum insulin concentrations were determined by using commercially available enzyme-linked immunosorbent assay kits (Linco Research, St. Charles, Mo.).
Data were analyzed by analysis of variance (ANOVA). The ANOVA was performed by using the general linear model procedure of SAS (SAS Institute Inc., Cary, N.C.) as previously described (Bassaganya-Riera et al. 2004). Differences with probability value (P<0.05) were considered significant.

[9] = system: C57BL6 mice fed regular or high fat diets; details: day 78, intraperitoneal D-glucose after 14 hours fast
Excerpt: as §6
A glucose tolerance test was conducted on day 78 of the experiment. Animals were fasted overnight (14 hours).

[10] = punicic acid-supplemented diets, 78 days
Excerpt: as §6

[11] = system: splenocytes stimulated with VR-1469 influenza virus antigens
[12] = 105-day dietary supplementation, 0.6 g punicic acid/100 g food
[13] = 7-day challenge with 2.5% DSS, grade 0 to 4, least square mean ± SEM
[14] = concanavalin A 5 μg/ml, cells from mice fed 0.6 g punicic acid/100 g food
[15] = counts of Con A-stimulated wells divided by counts of non-stimulated wells
[16] = non-stimulated, cells from mice fed 0.6 g punicic acid/100 g food

CCCC\C=C/C=C/C=C\CCCCCCCC(=O)O [punicic acid]
start of rectal bleeding, on average ([1]; 0.6 g punicic acid/100 g food, 2.5% DSS challenge): 7 day of the DSS challenge | mortality rate associated with colonic inflammation ([1]; 0.6 g punicic acid/100 g food, by day 6 of the 2.5% DSS challenge): 0% | Histological score: Crypt Damage [1, 13]: 0.33 ± 0.26 | Histological score: Epithelial Erosion [1, 13]: 0.00 ± 0.00 | Histological score: Inflammatory Cell Infiltration [1, 13]: 0.50 ± 0.17 | Histological score: Metaplasia/Hyperplasia [1, 13]: 0.50 ± 0.28 | Histological score: Mucosal Thickness [1, 13]: 1.83 ± 0.24 | Histological score: Vascular Changes [1, 13]: 0.50 ± 0.35 | colitis-associated disease ([1]; diet fed 32 days prior to 7-day DSS challenge (2.5%, wt/vol)): improved | average colon weights ([1]; following the DSS challenge): 0.153 grams | average macroscopic score in colons (scale from 0 to 3) ([1]; following the DSS challenge): 1.4 | histopathological examination of H&E-stained slides of colon ([1]; following the DSS challenge): no major lesions | adverse effects throughout the duration of the study [2]: No adverse effects were observed | macroscopic and histologic analysis of liver, kidneys and brain [2]: no abnormalities | colonic lymph nodes: CD3^+ T cells [3]: 10.24 ± 0.85 | colonic lymph nodes: CD4^+ T cells [3]: 6.65 ± 0.58 | colonic lymph nodes: CD8^+ T cells [3]: 4.53 ± 0.41 | colonic lymph nodes: CD19^+ T cells [3]: 5.98 ± 0.72 | colonic lymph nodes: Lymphocytes [3]: 18.64 ± 1.53 ×10^6/mL | colonic lymph nodes: TCR αβ^+T cells [3]: 11.78 ± 1.08 | colonic lymph nodes: Weight [3]: 261.66 mg | colonic lymph nodes: Weight ([3]; listed as Punicic Acid): 261.66 ± 3.28 mg | spleen: CD3^+ T cells [4]: 30.05 ± 1.78 | spleen: CD4^+ T cells [4]: 17.04 ± 1.10 | spleen: CD8^+ T cells [4]: 12.72 ± 0.73 | spleen: CD19^+ T cells [4]: 102.22 ± 5.42 | spleen: TCR αβ^+T cells [4]: 33.12 ± 1.93 | spleen: Total # of lymphocytes [4]: 144.21 ± 7.13 ×10^6/mL | spleen: Weight [4]: 884.54 ± 3.30 mg | thymus: CD4^+ thymocytes [5]: 2.51 ± 0.28 | thymus: CD4^+CD8^+ thymocytes [5]: 63.25 ± 8.73 | thymus: CD8^+ thymocytes [5]: 1.34 ± 0.18 | thymus: Lymphocytes [5]: 69.18 ± 9.56 ×10^6/mL | thymus: TCR αβ^+ thymocytes [5]: 9.12 ± 1.21 | thymus: Weight [5]: 845.00 ± 4.68 mg | Counts/minute lymph nodes (cRPMI & ConA) [6, 14]: 929.06 ± 161.10 Counts/minute | Stimulation index lymph nodes [6, 15]: 22.40 ± 3.61 | Counts/minute lymph nodes (cRPMI) [6, 16]: 43.12 ± 3.76 Counts/minute | Counts/minute spleen (cRPMI & ConA) [7, 14]: 1905.27 ± 254.42 Counts/minute | Stimulation index spleen [7, 15]: 25.20 ± 3.16 | Counts/minute spleen (cRPMI) [7, 16]: 73.17 ± 10.96 Counts/minute | Brown adipose tissue (interscapular) weight ([8]; High Fat Diets): 0.124 g | White adipose tissue (abdominal) weight ([8]; High Fat Diets): 0.830^b g | plasma fasting Glucose ([8]; High Fat Diets): 219.5^b mg/dL | plasma fasting Insulin ([8]; High Fat Diets): 1.229^b ng/mL | Brown adipose tissue (interscapular) weight ([8]; Regular Diets): 0.138 g | White adipose tissue (abdominal) weight ([8]; Regular Diets): 0.801^b g | plasma fasting Glucose ([8]; Regular Diets): 121.40^b mg/dL | plasma fasting Insulin ([8]; Regular Diets): 0.669^b ng/mL | glucose tolerance versus control diet ([9]; high fat diets): normalizes impaired glucose tolerance | glucose tolerance versus control diet ([9]; regular diets): not different | fatty liver or enlarged viscera [10]: not observed | Relative Proliferation Index B cells [11]: 1.15 ± 0.63 and 1.16 ± 0.27 | Relative Proliferation Index CD4^+ T cells [11]: 0.68 ± 0.48 and 1.10 ± 0.63 | H&E histology of brain, kidneys, liver, heart and lungs [12]: no microscopic lesions | adverse effects or clinical signs throughout the study [12]: No negative adverse effects
